Data taken from US8148388B2, “2,4 (4,6) pyrimidine derivatives” (Janssen Pharmaceutica, N.V., priority 2004, dated 2012).

Experiments:
Type in all cases: biochemical
GSK3B (h) = GSK3B (h) (Homo sapiens, UniProt P49841); experiment: GSK3β human kinase assay (glass-fiber filter); conditions: test concentration of 10^−6M
Method in brief: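 Human GSK3β (5-10 mU) with 20 μM phospho GS2 peptide, [γ-^33P]ATP, 8 mM MOPS pH 7.0, 10 mM Mg acetate; 40 min at room temperature. Stopped with phosphoric acid; substrate phosphorylation read as filter-bound radioactivity by scintillation counting.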

Lck (h) = Lck (h) (Homo sapiens, UniProt P06239); experiment: Lck human kinase assay (glass-fiber filter); conditions: test concentration of 10^−6M
Sequence of Lck (h) (P06239 whole entry): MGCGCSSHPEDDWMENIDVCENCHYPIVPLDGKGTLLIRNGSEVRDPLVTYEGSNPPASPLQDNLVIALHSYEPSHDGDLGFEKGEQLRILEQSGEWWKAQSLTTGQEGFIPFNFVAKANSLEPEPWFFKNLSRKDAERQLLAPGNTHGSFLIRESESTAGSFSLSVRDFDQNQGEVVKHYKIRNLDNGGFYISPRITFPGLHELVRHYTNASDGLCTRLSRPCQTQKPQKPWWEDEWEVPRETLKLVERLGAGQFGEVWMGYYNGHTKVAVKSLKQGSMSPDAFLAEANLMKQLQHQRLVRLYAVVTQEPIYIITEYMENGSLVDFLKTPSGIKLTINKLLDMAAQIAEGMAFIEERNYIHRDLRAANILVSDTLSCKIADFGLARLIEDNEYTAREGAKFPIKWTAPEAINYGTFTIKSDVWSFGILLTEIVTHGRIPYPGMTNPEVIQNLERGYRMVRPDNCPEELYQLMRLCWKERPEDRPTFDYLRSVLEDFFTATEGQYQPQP
Method in brief: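 Kinase activity measured as transfer of (^33P) from radiolabeled MgATP to substrate, captured on P30 glass-fiber filtermat, washed in 75 mM phosphoric acid and methanol, then scintillation counted.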

CSK (h) = CSK (h) (Homo sapiens, UniProt P41240); experiment: CSK human kinase assay (glass-fiber filter); conditions: test concentration of 10^−6M
Sequence of CSK (h) (P41240 whole entry): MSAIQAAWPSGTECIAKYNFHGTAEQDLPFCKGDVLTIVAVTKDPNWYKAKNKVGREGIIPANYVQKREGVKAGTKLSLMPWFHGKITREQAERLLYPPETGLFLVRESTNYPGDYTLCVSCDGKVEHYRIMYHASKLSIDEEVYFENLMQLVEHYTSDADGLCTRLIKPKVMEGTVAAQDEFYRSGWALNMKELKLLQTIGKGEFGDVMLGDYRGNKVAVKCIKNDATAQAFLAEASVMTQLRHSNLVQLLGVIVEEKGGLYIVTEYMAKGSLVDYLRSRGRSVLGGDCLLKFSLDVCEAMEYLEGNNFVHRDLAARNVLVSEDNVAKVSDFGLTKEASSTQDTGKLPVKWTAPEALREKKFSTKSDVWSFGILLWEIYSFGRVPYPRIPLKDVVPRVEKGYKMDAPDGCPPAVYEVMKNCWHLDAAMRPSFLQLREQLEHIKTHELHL
Experimental: In the glass-fiber filter technology the activity of the kinase of interest is measured using an appropriate substrate that is incubated with the aforementioned kinase protein in the presence of (^33P) radiolabeled ATP. (^33P) Phosphorylation of the substrate is subsequently measured as radioactivity bound on a glass fiber-filter.
All kinases are pre-diluted to a 10× working concentration prior to addition into the assay. The composition of the dilution buffer for each kinase is detailed below.
In a final reaction volume of 25 μl, CSK (h) (5-10 mU) is incubated with 50 mM Tris pH 7.5, 0.1 mM EGTA, 0.1 mM Na3VO4, 0.1% β-mercaptoethanol, 0.1 mg/ml poly(Glu, Tyr) 4:1, 10 mM MnCl2, 10 mM MgAcetate and [γ-^33P-ATP] (specific activity approx. 500 cpm/pmol, concentration as required). The reaction is initiated by the addition of the MgATP mix. After incubation for 40 minutes at room temperature, the reaction is stopped by the addition of 5 μl of a 3% phosphoric acid solution. 10 μl of the reaction is then spotted onto a Filtermat A and washed three times for 5 minutes in 75 mM phosphoric acid and once in methanol prior to drying and scintillation counting.

Fes (h) = Fes (h) (Homo sapiens, UniProt P07332); experiment: Fes human kinase assay (glass-fiber filter); conditions: test concentration of 10^−6M
Method in brief: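 Human Fes (5–10 mU) was incubated with 0.1 mg/ml poly(Glu,Tyr) 4:1 in 8 mM MOPS pH 7.0, 0.2 mM EDTA, 10 mM Mg acetate and [γ-33P]ATP for 40 min at room temperature. The reaction was stopped with phosphoric acid, and substrate phosphorylation was quantified by filter binding and scintillation counting.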

Fms (h) = Fms (h) (Homo sapiens, UniProt P07333); experiment: Fms human kinase assay (glass-fiber filter); conditions: test concentration of 10^−6M
Sequence of Fms (h) (P07333 20-972): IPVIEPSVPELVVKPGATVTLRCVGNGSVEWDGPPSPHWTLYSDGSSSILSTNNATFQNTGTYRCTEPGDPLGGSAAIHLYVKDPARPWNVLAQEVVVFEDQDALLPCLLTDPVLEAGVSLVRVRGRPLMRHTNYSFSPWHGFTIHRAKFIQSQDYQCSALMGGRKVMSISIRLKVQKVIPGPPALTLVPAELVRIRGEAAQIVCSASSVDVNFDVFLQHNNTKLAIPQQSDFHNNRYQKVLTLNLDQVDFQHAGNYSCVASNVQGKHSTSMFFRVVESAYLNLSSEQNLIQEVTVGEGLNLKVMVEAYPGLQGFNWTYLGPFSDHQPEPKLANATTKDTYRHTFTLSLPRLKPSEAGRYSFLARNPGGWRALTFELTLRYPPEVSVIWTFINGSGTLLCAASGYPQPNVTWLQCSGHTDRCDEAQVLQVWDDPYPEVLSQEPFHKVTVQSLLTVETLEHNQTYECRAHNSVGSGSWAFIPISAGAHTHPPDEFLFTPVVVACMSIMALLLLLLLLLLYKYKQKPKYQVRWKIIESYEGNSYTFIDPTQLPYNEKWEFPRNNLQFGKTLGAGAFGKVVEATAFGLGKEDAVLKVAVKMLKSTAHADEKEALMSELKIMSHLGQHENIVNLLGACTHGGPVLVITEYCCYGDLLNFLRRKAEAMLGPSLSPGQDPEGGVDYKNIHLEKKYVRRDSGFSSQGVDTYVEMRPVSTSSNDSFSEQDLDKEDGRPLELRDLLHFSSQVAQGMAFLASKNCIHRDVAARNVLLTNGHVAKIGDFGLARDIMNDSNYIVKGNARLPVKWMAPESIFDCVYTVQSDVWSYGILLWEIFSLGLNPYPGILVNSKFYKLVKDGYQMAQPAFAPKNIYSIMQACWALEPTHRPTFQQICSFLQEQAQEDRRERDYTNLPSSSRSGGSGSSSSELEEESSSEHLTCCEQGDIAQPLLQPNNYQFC
Method in brief: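 Radiometric filter-binding assay: Fms (5-10 mU) with 250 μM peptide substrate and [γ-33P]ATP in 8 mM MOPS pH 7.0, 10 mM Mg acetate, 40 min at room temperature. Reaction stopped with phosphoric acid; substrate-bound 33P counted on P30 filtermat.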

cSRC (h) = cSRC (h) (Homo sapiens, UniProt P12931); experiment: cSRC human kinase assay (glass-fiber filter); conditions: test concentration of 10^−6M
Sequence of cSRC (h) (P12931 whole entry): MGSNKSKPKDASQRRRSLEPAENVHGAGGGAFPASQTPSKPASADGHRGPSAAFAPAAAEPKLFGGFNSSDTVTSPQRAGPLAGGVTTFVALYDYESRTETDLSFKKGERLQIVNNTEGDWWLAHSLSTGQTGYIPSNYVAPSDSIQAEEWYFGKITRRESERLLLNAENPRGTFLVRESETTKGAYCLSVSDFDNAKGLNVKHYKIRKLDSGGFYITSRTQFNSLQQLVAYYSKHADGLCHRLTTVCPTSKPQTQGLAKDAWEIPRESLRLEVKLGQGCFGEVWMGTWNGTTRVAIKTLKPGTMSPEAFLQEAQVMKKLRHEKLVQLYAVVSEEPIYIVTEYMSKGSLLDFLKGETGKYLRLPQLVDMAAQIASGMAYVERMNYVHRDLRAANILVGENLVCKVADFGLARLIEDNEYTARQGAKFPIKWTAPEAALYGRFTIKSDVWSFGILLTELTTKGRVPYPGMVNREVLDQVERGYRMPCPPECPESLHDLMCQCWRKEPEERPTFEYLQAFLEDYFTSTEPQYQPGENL
Method in brief: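 Radiometric assay: kinase and substrate are incubated with [33P]ATP, with the reaction started by MgATP mix. The reaction is spotted on P30 filtermat, washed in 75 mM phosphoric acid and methanol, and the bound 33P is measured by scintillation counting.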

Yes (h) = Yes (h) (Homo sapiens, UniProt P07947); experiment: Yes human kinase assay (glass-fiber filter); conditions: test concentration of 10^−6M
Sequence of Yes (h) (P07947 whole entry): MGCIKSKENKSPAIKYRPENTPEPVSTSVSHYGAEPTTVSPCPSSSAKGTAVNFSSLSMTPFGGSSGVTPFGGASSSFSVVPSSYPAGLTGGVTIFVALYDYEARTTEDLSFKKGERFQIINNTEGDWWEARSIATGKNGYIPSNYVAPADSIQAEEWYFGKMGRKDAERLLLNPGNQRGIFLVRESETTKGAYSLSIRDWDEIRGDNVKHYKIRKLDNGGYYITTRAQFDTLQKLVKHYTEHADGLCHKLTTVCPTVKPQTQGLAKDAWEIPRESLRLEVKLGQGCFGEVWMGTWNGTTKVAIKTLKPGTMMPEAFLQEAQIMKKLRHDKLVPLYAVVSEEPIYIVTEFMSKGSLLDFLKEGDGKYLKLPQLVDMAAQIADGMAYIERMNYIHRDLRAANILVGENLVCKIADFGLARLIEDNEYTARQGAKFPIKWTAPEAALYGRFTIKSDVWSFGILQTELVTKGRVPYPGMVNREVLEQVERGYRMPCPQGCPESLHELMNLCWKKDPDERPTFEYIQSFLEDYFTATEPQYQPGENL
Method in brief: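 Yes (h) (5-10 mU) with 0.1 mg/ml poly(Glu, Tyr) 4:1 in 8 mM MOPS pH 7.0, 0.2 mM EDTA, 10 mM MgAcetate and [γ-^33P-ATP], 40 minutes at room temperature. Stopped with phosphoric acid; substrate-bound ^33P counted on glass-fiber filter by scintillation.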

Abl (h) = Abl (h) (Homo sapiens, UniProt P00519); experiment: Abl human kinase assay (glass-fiber filter); conditions: test concentration of 10^−6M
Lyn (h) = Lyn (h) (Homo sapiens, UniProt P07948); experiment: Lyn human kinase assay (glass-fiber filter); conditions: test concentration of 10^−6M
Method in brief: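 Human Lyn (5-10 mU) phosphorylating poly(Glu,Tyr) 4:1 at 0.1 mg/ml with [γ-33P]ATP (concentration as required) in 50 mM Tris pH 7.5, 10 mM Mg acetate, 40 min at room temperature. Stopped with phosphoric acid; substrate-bound radioactivity counted on glass-fibre filter.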

EGFR (h) = EGFR (h) (Homo sapiens, UniProt P00533); experiment: EGFR human kinase assay (glass-fiber filter); conditions: test concentration of 10^−6M
Method in brief: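 Human EGFR (5-10 mU) phosphorylated 0.1 mg/ml poly(Glu, Tyr) 4:1 in 8 mM MOPS pH 7.0, 0.2 mM EDTA, 10 mM MnCl2, 10 mM MgAcetate with [γ-33P]ATP at unspecified concentration. Incubation lasted 40 minutes at room temperature, was stopped with phosphoric acid, and filter-bound 33P was counted by scintillation.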

Flt3 (h) = Flt3 (h) (Homo sapiens, UniProt P36888); experiment: Flt3 human kinase assay (glass-fiber filter); conditions: test concentration of 10^−6M; read-out: C6 score (inhibition of Flt3 human)
Method in brief: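 Human Flt3 (5-10 mU) with 50 μM peptide substrate in 8 mM MOPS pH 7.0, 0.2 mM EDTA, 10 mM Mg acetate and [γ-33P]ATP (concentration as required), 40 min at room temperature. Reaction stopped with phosphoric acid; substrate 33P incorporation counted on P30 glass-fiber filter.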

ErbB2 (h) = ErbB2 (h) (Homo sapiens, UniProt P04626); experiment: ErbB2 human kinase assay (filter); conditions: read-out: C13 ERBB 2 Filter Score
Sequence of ErbB2 (h) (P04626 23-1255): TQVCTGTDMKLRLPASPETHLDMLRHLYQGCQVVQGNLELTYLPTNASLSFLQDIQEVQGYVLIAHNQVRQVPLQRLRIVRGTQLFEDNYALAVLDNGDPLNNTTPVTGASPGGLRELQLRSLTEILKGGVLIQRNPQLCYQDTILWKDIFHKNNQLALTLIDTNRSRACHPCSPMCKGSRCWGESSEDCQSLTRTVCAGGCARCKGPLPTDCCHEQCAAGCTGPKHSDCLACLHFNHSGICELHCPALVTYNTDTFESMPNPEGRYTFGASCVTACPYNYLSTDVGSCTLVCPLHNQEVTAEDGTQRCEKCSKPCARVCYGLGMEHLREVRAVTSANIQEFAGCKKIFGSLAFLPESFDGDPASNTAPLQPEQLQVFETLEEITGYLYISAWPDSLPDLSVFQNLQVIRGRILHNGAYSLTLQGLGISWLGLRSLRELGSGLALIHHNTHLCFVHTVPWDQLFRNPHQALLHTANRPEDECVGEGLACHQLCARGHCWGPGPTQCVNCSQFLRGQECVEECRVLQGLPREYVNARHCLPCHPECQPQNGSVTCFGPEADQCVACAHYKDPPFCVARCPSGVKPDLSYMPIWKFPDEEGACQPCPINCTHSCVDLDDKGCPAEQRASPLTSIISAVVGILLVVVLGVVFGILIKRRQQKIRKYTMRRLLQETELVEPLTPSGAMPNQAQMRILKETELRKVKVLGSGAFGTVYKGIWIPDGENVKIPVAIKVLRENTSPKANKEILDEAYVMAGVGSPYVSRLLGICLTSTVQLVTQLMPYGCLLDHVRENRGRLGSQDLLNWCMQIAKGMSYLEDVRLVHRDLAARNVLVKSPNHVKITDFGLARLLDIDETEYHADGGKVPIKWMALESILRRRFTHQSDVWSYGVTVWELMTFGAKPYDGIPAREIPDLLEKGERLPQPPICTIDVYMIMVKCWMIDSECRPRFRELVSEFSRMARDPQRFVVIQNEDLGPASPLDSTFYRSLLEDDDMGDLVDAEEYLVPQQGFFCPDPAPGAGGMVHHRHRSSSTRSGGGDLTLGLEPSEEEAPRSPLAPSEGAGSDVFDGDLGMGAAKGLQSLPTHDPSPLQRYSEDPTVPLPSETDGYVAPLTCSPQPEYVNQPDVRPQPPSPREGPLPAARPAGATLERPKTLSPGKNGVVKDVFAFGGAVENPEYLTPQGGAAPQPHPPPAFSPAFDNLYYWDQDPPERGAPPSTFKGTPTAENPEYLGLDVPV
Experimental: Similarly to the above the in vitro inhibition of two other kinases, i.e. human ErbB2 and human ErbB4 was tested for some of the compounds according to the invention.
In a final reaction volume of 25 μl, ErbB2 (h) (5-10 mU) is incubated with 8 mM MOPS pH 7.0, 0.2 mM EDTA, 10 mM MnCl2, 0.1 mg/ml poly(Glu, Tyr) 4:1, 10 mM MgAcetate and [γ-33P-ATP] (specific activity approx. 500 cpm/pmol, concentration as required). The reaction is initiated by the addition of the MgATP mix. After incubation for 40 minutes at room temperature, the reaction is stopped by the addition of 5 μl of a 3% phosphoric acid solution. 10 μl of the reaction is then spotted onto a Filtermat A and washed three times for 5 minutes in 75 mM phosphoric acid and once in methanol prior to drying and scintillation counting.

EGFR-kinase domain = biological target: T1, EGFR-kinase domain (Homo sapiens, UniProt P00533); experiment: In vitro inhibition of EGFR (Flash Plate assay); conditions: full dose response 1.10^−6M to 1.10^−10M, read-out: C12 EGFR flash Score
T1 construct: 0.5 μg EGFR-kinase domain/well
T1 sequence (P00533 712-979 limits assumed): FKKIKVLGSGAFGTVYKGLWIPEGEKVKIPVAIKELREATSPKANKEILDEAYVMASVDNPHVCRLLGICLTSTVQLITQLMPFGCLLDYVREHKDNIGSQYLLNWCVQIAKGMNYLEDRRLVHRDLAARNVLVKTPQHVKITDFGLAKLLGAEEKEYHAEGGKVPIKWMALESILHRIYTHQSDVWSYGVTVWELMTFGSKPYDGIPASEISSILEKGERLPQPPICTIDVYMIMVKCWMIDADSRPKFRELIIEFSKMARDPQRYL
Experimental: The in vitro inhibition of EGFR was assessed using either the Flash Plate technology or the glass-fiber filter technology as described by Davies, S. P. et al., Biochem J. (2000), 351; p. 95-105. The Flash Plate technology is generally described by B. A. Brown et al. in High Throughput Screening (1997), p. 317-328. Editor(s): Devlin, John P. Publisher: Dekker, New York, N.Y.
In the Flash Plate EGFR kinase reaction assay, a kinase substrate consisting of biotinylated poly(L-glutamic acid-L-tyrosine) (poly(GT)biotin), is incubated with the aforementioned protein in the presence of (^33P) radiolabeled ATP. (^33P) phosphorylation of the substrate is subsequently measured as light energy emitted using a streptavidin-coated Flash Plate (PerkinElmer Life Sciences) by trapping and quantifying the binding of the biotin tagged and radiolabeled substrate.
The EGFR kinase reaction is performed at 30° C. for 60 minutes in a 96-well microtiter FlashPlate (PerkinElmer Life Sciences). For each of the tested compounds a full dose response 1.10^−6M to 1.10^−10M has been performed. IRESSA® and Tarceva™ (erlotinib) were used as reference compounds. The 100 μl reaction volume contains 54.5 mM TrisHCl pH 8.0, 10 mM MgCl2, 100 μM Na3VO4, 5.0 μM unlabeled ATP, 1 mM DTT, 0.009% BSA, 0.8 μCi AT^33P, 0.35 μg/well poly(GT)biotin and 0.5 μg EGFR-kinase domain/well.
The reaction is stopped by aspirating the reaction mixture and washing the plate 3× with 200 μl wash/stop buffer (PBS+100 mM EDTA). After the final wash step 200 μl of wash/stop buffer was added to each well and the amount of phosphorylated (^33P) Poly(GT)biotin determined by counting (30 sec/well) in a microtiterplate scintillation counter.

Sequence of GSK3B (h) (P49841 whole entry): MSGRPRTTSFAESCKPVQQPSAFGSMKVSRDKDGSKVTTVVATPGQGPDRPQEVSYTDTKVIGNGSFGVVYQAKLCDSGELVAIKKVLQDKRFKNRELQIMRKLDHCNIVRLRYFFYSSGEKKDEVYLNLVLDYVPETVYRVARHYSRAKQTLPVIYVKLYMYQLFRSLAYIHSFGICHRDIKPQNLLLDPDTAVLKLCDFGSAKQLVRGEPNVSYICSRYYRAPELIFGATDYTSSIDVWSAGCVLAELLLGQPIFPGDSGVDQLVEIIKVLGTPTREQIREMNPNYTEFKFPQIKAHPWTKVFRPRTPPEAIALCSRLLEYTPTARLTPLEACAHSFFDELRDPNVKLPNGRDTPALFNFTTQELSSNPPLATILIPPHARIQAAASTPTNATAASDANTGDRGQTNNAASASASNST

## COc1ccc2cc1OCCCCCCCCCOc1ccc(Cl)cc1Nc1cc(ncn1)N2 [Compound 39, 1H,7H-2,6: 12,8-dimetheno-14H-13,23,1,3,5,7-benzodioxatetraazacyclopentacosine, 26-chloro-15,16,17,18,19,20,21,22-octahydro-11-methoxy-]
GSK3B (h)
  C8 score (inhibition of GSK3β human): 1 (Score 1=10-30% inhibition)
Lck (h)
  C9 score (inhibition of Lck human): 1 (Score 1=10-30% inhibition)
CSK (h)
  C2 score (inhibition of CSK human): 1 (Score 1=10-30% inhibition)
Fes (h)
  C4 score (inhibition of Fes human): 1 (Score 1=10-30% inhibition)
Fms (h)
  C7 score (inhibition of Fms human): 1 (Score 1=10-30% inhibition)

## Cl.Cl.O=C1CNC(=O)Cc2ccc(Cl)cc2Nc2cc(ncn2)Nc2ccc(OCCCN3CCOCC3)c(c2)OCCN1 [Compound 107, 1H,7H-6,2:8,12-dimetheno-13,1,3,5,7,16,19-benzoxahexaazacyclotricosine-17,20(14H)-dione, 24-chloro-15,16,18,19,21-pentahydro-11-[3-(4-morpholinyl)propoxy]-, hydrochloric acid salt (1:2)]
cSRC (h)
  C3 score (inhibition of cSRC human): 4 (Score 4=>80% inhibition)
Yes (h)
  C11 score (inhibition of Yes human): 4 (Score 4=>80% inhibition)
Lck (h)
  C9 score (inhibition of Lck human): 4 (Score 4=>80% inhibition)
CSK (h)
  C2 score (inhibition of CSK human): 3 (Score 3=60-80% inhibition)
Fes (h)
  C4 score (inhibition of Fes human): 4 (Score 4=>80% inhibition)
Abl (h)
  C1 score (inhibition of Abl human): 4 (Score 4=>80% inhibition)
Lyn (h)
  C10 score (inhibition of Lyn human): 4 (Score 4=>80% inhibition)
EGFR (h)
  C4 score (inhibition of EGFR human): 4 (Score 4=>80% inhibition)

## O=C1COc2cccc(c2)Nc2cc(ncn2)Nc2cccc(c2)CN2CCN1CC2 [Compound 42, 20-oxa-1,8,10,12,14,23-hexaazapentacyclo[21.2.2.1~3,7~.1~9,13~.1~15,19~]triaconta-3,5,7(30),9,11,13(29),15,17,19(28)-nonaen-22-one]
cSRC (h); read-out: C3 score (inhibition of cSRC human)
  inhibition at 1 µM: 10 to 30%
GSK3B (h); read-out: C8 score (inhibition of GSK3β human)
  inhibition at 1 µM: 10 to 30%
Flt3 (h)
  inhibition at 1 µM: 30 to 60%
Yes (h); read-out: C11 score (inhibition of Yes human)
  inhibition at 1 µM: 60 to 80%
Lck (h); read-out: C9 score (inhibition of Lck human)
  inhibition at 1 µM: 30 to 60%
CSK (h); read-out: C2 score (inhibition of CSK human)
  inhibition at 1 µM: 30 to 60%
Fms (h); read-out: C7 score (inhibition of Fms human)
  inhibition at 1 µM: 30 to 60%

## COc1ccc2cc1OCCNC(=O)C(Cc1ccc(C(F)(F)F)cc1)NC(=O)CN(C)Cc1cccc(c1)Nc1cc(ncn1)N2 (centres unmarked) [Compound 114]
ErbB2 (h)
  IC50: 1000 to 10000 nM
EGFR-kinase domain
  IC50: < 1000 nM

## O=C1COc2cccc(c2)Nc2cc(ncn2)Nc2cccc(c2)OCCCCCN1 [Compound 163]
ErbB2 (h)
  IC50: < 1000 nM

## CN(C)CCCCC1NC(=O)CN(C)Cc2cccc(c2)Nc2cc(ncn2)Nc2cccc(c2)CN2CCN(CC2)C1=O (centres unmarked) [Compound 159]
ErbB2 (h)
  IC50: 1000 to 10000 nM
EGFR-kinase domain
  IC50: < 1000 nM

## CCN1CCNC(=O)C(CCCCN(C)C)NC(=O)CN(C)Cc2cccc(c2)Nc2cc(ncn2)Nc2cccc(c2)C1 (centres unmarked) [Compound 153]
ErbB2 (h)
  IC50: 1000 to 10000 nM

## COc1ccc2cc1OCCNC(=O)C1CN(CCO1)C(=O)CN(C)Cc1cccc(c1)Nc1cc(ncn1)N2 (racemic) [Compound 158]
ErbB2 (h)
  IC50: 1000 to 10000 nM
EGFR-kinase domain
  IC50: < 1000 nM

## COc1ccc2cc1OCCCCCCCCOc1ccc(Br)cc1Nc1cc(ncn1)N2 [Compound 38, 1H,7H-2,6: 12,8-dimetheno-13,22,1,3,5,7-benzodioxatetraazacyclotetracosine, 25-bromo-14,15,16,17,18,19,20,21-octahydro-11-methoxy-]
cSRC (h)
  C3 score (inhibition of cSRC human): 1 (Score 1=10-30% inhibition)
GSK3B (h)
  C8 score (inhibition of GSK3β human): 1 (Score 1=10-30% inhibition)
Yes (h)
  C11 score (inhibition of Yes human): 1 (Score 1=10-30% inhibition)
CSK (h)
  C2 score (inhibition of CSK human): 1 (Score 1=10-30% inhibition)
Lyn (h)
  C10 score (inhibition of Lyn human): 1 (Score 1=10-30% inhibition)
EGFR (h)
  C4 score (inhibition of EGFR human): 3 (Score 3=60-80% inhibition)
Fms (h)
  C7 score (inhibition of Fms human): 2 (Score 2=30-60% inhibition)
